For 13 compounds, IC50 results are on record in patent US11780830B2, “Triazolone derivatives or salts thereof and pharmaceutical compositions comprising the same” (YUHAN CORPORATION, priority 2018, dated 2023).

A word on the IC50: it is the point on the concentration scale where inhibition reaches its midpoint.

What all share (type): biochemical
Test [1] addresses T1, recombinant human VAP-1 (Homo sapiens, UniProt Q16853).
T1 construct: purchased R&D systems
T1 sequence (Q16853 1-763): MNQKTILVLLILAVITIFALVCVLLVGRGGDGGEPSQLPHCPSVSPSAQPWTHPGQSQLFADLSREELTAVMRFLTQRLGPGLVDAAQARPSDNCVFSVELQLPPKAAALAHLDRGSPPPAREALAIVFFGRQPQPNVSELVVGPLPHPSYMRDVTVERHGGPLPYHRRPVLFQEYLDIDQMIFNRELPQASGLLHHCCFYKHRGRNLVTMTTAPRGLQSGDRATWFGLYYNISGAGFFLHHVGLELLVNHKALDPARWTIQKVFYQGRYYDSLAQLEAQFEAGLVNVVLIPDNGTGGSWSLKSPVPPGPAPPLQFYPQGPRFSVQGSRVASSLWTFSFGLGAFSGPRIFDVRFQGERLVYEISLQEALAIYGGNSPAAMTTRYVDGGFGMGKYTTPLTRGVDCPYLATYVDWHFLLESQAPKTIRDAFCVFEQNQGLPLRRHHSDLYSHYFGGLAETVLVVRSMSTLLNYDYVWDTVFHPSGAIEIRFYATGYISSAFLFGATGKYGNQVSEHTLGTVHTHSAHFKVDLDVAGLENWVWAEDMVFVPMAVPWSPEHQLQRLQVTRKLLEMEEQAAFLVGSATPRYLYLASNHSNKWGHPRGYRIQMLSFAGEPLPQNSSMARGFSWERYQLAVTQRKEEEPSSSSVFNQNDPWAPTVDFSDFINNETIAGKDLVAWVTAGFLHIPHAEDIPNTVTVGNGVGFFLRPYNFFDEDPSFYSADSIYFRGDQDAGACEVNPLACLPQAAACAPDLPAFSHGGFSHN
The test is described as follows: Activity on recombinant human VAP-1, HRP-coupled Amplex Red hydrogen peroxide assay. The settings on record: substrate 1 mM benzylamine; compound incubated with enzyme at 37° C. for 30 minutes; pH 7.4; read-out: Inhibitory Activity (IC50, nM) human VAP-1. The procedure: (§1) The compounds according to the present technology were evaluated in terms of activity on recombinant human VAP-1 (R&D systems) by measuring the level of hydrogen peroxide in horseradish peroxidase (HRP)-coupled reaction using Amplex Red Hydrogen Peroxide Assay Kit (Molecular Probes, Invitrogen, USA). The experiment was carried out at room temperature using benzylamine as a substrate. In the HRP-coupled reaction, hydrogen peroxide oxidation of 10-acetyl-3,7-dihydroxyphenoxazine (Amplex Red reagent) produces resorufin, which is a highly fluorescent compound. Briefly, the test compound was dissolved in dimethyl sulfoxide (DMSO) at a concentration of 20 mM. The dose-response assessment was made by 1:3 serial dilution in DMSO, thereby creating an 8 point curve. The concentration of the upper part was controlled according to the efficacy of the compounds, followed by dilution with a reaction buffer solution to obtain a final DMSO concentration less than 1%. To each well of a 96 black well plate, human VAP-1 purified in 50 mM sodium phosphate buffer solution (pH7.4) was added. The test compounds dissolved in DMSO were incubated with the human VAP-1 enzymes at 37° C. for 30 minutes. After 30-minute incubation, each well is added with a reaction mixture containing 200 uM Amplex Red reagent prepared from 50 mM sodium phosphate buffer solution (pH 7.4), 1 mM benzylamine, and 1 U/mL HRP. Fluorescence intensity was measured at several time points during 1-2 hours using a microplate reader (Flexstation3, Molecular Devices) under the wavelength condition exciting at 544 nm and reading the emission at 590 nm. The inhibitory effect of the compounds was measured as a decrease (%) in the signal rate as compared to the control group without any inhibitor (only diluted DMSO). Data was fixed to a logistic model with four variables and IC50 value was calculated using GraphPad Prism program.

In test [2] the target is T2, recombinant human DAO (diamine oxidase) (Homo sapiens, UniProt P19801).
T2 construct: purchased R&D systems
T2 sequence (P19801 20-751): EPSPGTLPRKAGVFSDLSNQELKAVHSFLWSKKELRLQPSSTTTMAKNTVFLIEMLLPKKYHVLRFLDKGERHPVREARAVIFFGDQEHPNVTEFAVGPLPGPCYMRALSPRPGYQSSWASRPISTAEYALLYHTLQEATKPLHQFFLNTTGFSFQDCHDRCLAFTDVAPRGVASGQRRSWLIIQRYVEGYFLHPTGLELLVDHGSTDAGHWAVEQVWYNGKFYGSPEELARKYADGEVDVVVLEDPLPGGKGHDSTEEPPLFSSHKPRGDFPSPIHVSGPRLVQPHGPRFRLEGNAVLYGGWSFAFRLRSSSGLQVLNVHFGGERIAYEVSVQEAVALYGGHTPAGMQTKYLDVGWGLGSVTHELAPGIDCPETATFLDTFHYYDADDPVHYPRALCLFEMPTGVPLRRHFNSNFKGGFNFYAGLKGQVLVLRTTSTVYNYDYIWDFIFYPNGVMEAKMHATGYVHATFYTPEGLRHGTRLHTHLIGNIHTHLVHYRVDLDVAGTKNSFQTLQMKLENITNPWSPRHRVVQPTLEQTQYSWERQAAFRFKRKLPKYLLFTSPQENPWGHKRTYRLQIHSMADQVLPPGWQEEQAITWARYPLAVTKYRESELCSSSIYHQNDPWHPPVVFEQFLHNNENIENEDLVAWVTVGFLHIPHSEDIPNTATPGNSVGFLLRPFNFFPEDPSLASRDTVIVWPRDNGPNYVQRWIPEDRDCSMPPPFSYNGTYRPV
The test is described as follows: Activity on recombinant human DAO, method similar to the VAP-1 assay. The settings on record: substrate 1 mM putrescine; read-out: Inhibitory Activity (IC50, nM) DAO. Here is the method:
as §1
(§2) In addition, the compounds according to the present technology were evaluated in terms of activity on a recombinant human MAO-A (monoamine oxidase-A, Sigma-Aldrich) and a recombinant human MAO-B (monoamine oxidase-B, Sigma-Aldrich) by using as substrates, 0.5 mM tyramine and 1 mM benzylamine, respectively, with a method similar to the activity evaluation method for recombinant human VAP-1. The compounds according to the present technology were also evaluated in terms of activity on a recombinant human DAO (diamine oxidase, R&D systems) by using as a substrate 1 mM putrescine with a method similar to the activity evaluation method for recombinant human VAP-1.

Test [3] concerns the target T3, recombinant human MAO-A (monoamine oxidase-A) (Homo sapiens, UniProt P21397).
T3 construct: purchased Sigma-Aldrich
T3 sequence (P21397 1-527): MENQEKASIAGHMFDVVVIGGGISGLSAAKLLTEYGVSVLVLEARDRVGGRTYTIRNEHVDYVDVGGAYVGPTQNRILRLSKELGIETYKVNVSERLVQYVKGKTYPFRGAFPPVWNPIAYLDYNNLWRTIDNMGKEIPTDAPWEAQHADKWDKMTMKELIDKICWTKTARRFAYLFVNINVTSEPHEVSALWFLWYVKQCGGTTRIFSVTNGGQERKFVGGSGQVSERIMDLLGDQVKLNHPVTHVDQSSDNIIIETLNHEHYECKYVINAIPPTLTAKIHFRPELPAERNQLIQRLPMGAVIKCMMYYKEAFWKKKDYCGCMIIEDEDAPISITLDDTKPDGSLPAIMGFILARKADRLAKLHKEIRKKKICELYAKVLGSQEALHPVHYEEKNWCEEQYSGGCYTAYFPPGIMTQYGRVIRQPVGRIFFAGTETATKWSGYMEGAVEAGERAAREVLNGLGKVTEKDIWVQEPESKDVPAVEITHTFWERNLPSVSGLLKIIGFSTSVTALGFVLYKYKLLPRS
Description: Activity on recombinant human MAO-A, method similar to the VAP-1 assay. The settings on record: substrate 0.5 mM tyramine; read-out: Inhibitory Activity (IC50, nM) MAO-A. Here is the method:
as §1, §2

Structures are written as SMILES. Structures can show the parent of a compound that is named as a salt.

In the case of `CC(=O)Nc1cc(-c2ccc(Cn3cnn(C/C(=C\F)CN)c3=O)s2)ccn1` [Example 41, N-4-[5-(1-[(2Z)-2-(aminomethyl)-3-fluoroprop-2-en-1-yl]-5-oxo-1,5-dihydro-4H-1,2,4-triazol-4-ylmethyl)thiophen-2-yl]pyridin-2-ylacetamide hydrochloride], the 50% inhibitory concentration (IC50) in test [1] came to 1.3 nM.

Turning to `COCCNc1ncc(-c2ccc(Cn3cnn(C/C(=C/F)CN)c3=O)s2)cn1` [Example 53, 2-[(2E)-2-(aminomethyl)-3-fluoroprop-2-en-1-yl]-4-[(5-2-[(2-methoxyethyl)amino]pyrimidin-5-ylthiophen-2-yl)methyl]-2,4-dihydro-3H-1,2,4-triazol-3-one hydrochloride], the IC50 is 380 nM in test [2], 2.6 nM in test [1] and over 100000 nM in test [3].

In the case of `NC/C(=C/F)Cn1ncn(CCc2cccs2)c1=O` [Example 140, 2-[(2Z)-2-(aminomethyl)-3-fluoroprop-2-en-1-yl]-4-[2-(thiophen-2-yl)ethyl]-2,4-dihydro-3H-1,2,4-triazol-3-one], the IC50 in test [1] is 31 nM.

For the compound `NC/C(=C/F)Cn1ncn(Cc2ccc(-c3cccc(-c4nnc[nH]4)c3)s2)c1=O` [Example 32, 2-[(2Z)-2-(aminomethyl)-3-fluoroprop-2-en-1-yl]-4-(5-[3-(4H-1,2,4-triazol-3-yl)phenyl]thiophen-2-ylmethyl)-2,4-dihydro-3H-1,2,4-triazol-3-one], in test [1], the IC50 came out at 1.2 nM.

In the case of `Cc1cc(-c2ccc(Cn3cnn(C/C(=C\F)CN)c3=O)s2)cc2c1NC(=O)CC2` [Example 76, 6-[5-(1-[(2Z)-2-(aminomethyl)-3-fluoroprop-2-en-1-yl]-5-oxo-1,5-dihydro-4H-1,2,4-triazol-4-ylmethyl)thiophen-2-yl]-8-methyl-3,4-dihydroquinolin-2(1H)-one hydrochloride], the IC50 in test [1] was found to be 2.7 nM.

As to `NC/C(=C\F)Cn1ncn(Cc2ccc(/C=C/c3cnc4[nH]c(=O)oc4c3)s2)c1=O` [Example 122, 6-[(E)-2-[5-[[1-[(E)-2-(aminomethyl)-3-fluoro-allyl]-5-oxo-1,2,4-triazol-4-yl]methyl]-2-thienyl]vinyl]-3H-oxazolo[4,5-b]pyridin-2-one hydrochloride], the IC50 in test [2] was 680 nM; in test [1], 1 nM; in test [3], over 100000 nM.

For the compound `NC/C(=C/F)Cn1ncn(Cc2ccc(-c3ccc(-c4nnc[nH]4)cc3)s2)c1=O` [Example 30, 2-[(2Z)-2-(aminomethyl)-3-fluoroprop-2-en-1-yl]-4-(5-[4-(4H-1,2,4-triazol-3-yl)phenyl]thiophen-2-ylmethyl)-2,4-dihydro-3H-1,2,4-triazol-3-one], the IC50 in test [1] was 0.97 nM.

Turning to `NC/C(=C/F)Cn1ncn(Cc2ccc(-c3ccc4c(c3)NC(=O)CO4)s2)c1=O` [Example 89, 6-[5-(1-[(2Z)-2-(aminomethyl)-3-fluoroprop-2-en-1-yl]-5-oxo-1,5-dihydro-4H-1,2,4-triazol-4-ylmethyl)thiophen-2-yl]-2H-1,4-benzoxazin-3(4H)-one hydrochloride], the IC50 in test [1] was determined as 1.9 nM.

As to `NC/C(=C/F)Cn1ncn(Cc2ccc(-c3ccc4c(c3)NC(=O)OC4)s2)c1=O` [Example 99, 7-[5-(1-[(2Z)-2-(aminomethyl)-3-fluoroprop-2-en-1-yl]-5-oxo-1,5-dihydro-4H-1,2,4-triazol-4-ylmethyl)thiophen-2-yl]-1,4-dihydro-2H-3,1-benzoxazin-2-one hydrochloride], the IC50 in test [1] amounted to 1.2 nM.

Regarding `NC/C(=C/F)Cn1ncn(Cc2ccc(-c3ccc(C(=O)N4CCOCC4)cc3)s2)c1=O` [Example 26, 2-[(2Z)-2-(aminomethyl)-3-fluoroprop-2-en-1-yl]-4-(5-[4-(morpholin-4-ylcarbonyl)phenyl]thiophen-2-ylmethyl)-2,4-dihydro-3H-1,2,4-triazol-3-one hydrochloride], the IC50 in test [1] amounted to 1.4 nM.

For the compound `NC/C(=C/F)Cn1ncn(Cc2ccc(-c3ccc(N4CCOCC4)nc3)s2)c1=O` [Example 51, 2-[(2Z)-2-(aminomethyl)-3-fluoroprop-2-en-1-yl]-4-(5-[6-(morpholin-4-yl)pyridin-3-yl]thiophen-2-ylmethyl)-2,4-dihydro-3H-1,2,4-triazol-3-one hydrochloride], the IC50 in test [1] came out at 0.75 nM.

For `COc1ccc(-c2ccc(Cn3cnn(C/C(=C\F)CN)c3=O)s2)cn1` [Example 44, 2-[(2Z)-2-(aminomethyl)-3-fluoroprop-2-en-1-yl]-4-[5-(6-methoxypyridin-3-yl)thiophen-2-yl]methyl-2,4-dihydro-3H-1,2,4-triazol-3-one hydrochloride], in test [1], the IC50 is 1.9 nM.

With `NC/C(=C/F)Cn1ncn(Cc2ccc(-c3ccc(C(F)(F)F)nc3)s2)c1=O` [Example 48, 2-[(2Z)-2-(aminomethyl)-3-fluoroprop-2-en-1-yl]-4-(5-[6-(trifluoromethyl)pyridin-3-yl]thiophen-2-ylmethyl)-2,4-dihydro-3H-1,2,4-triazol-3-one hydrochloride], the IC50 in test [1] worked out at 1.6 nM.
